Experimental data: ChEMBL document CHEMBL1833824, “Effects of cyclization on stability, structure, and activity of α-conotoxin RgIA at the α9α10 nicotinic acetylcholine receptor and GABA(B) receptor” (J Med Chem, 2011)
Bridge positions count the residues as written; N and C are the ends. Peptide text beside a SMILES is read from it.

Columns and labels:
[1] = Inhibition of human alpha-9/rat alpha-10 nAChR expressed in Xenopus oocytes assessed as inhibition of acetylcholine-induced current by voltage clamp assay; format: cell-based; details: Oocyte
[2] = Inhibition of GABA-B receptor-mediated high voltage-activated Ca2+ channel current in Wistar rat DRG neurons by whole-cell patch clamp assay; details: DRG neuron
[3] = Metabolic stability in human AB positive serum assessed as compound degradation at 20 uM at 5 hrs; format: ADME, cell-free; details: read-out: Drug metabolism
Oocyte [4] = test: Inhibition of human alpha-9/rat alpha-10 nACHR expressed in Xenopus oocytes assessed as inhibition of acetylcholine-induced current at 50 nM by voltage clamp assay; format: cell-based
Oocyte [5] = test: Inhibition of human alpha-9/rat alpha-10 nACHR expressed in Xenopus oocytes assessed as inhibition of acetylcholine-induced current by voltage clamp assay relative to RgIA; format: cell-based; details: dose or concentration not given here

| SMILES | IC50 [1] [nM] | IC50 [2] [nM] | metabolised at 5 h, 20 µM [3] [%] | inhibition (Oocyte [4]) [%] | inhibition (Oocyte [5]) [%] |
| --- | --- | --- | --- | --- | --- |
| C[C@H](NC(=O)CNC(=O)[C@H](C)NC(=O)[C@H](C)NC(=O)CNC(=O)CNC(=O)[C@@H]1CSSC[C@H](NC(=O)CN)C(=O)N[C@H]2CSSC[C@H](NC(=O)[C@H](CCCNC(=N)N)NC(=O)[C@@H]3CCCN3C(=O)[C@H](CC(=O)O)NC(=O)[C@H](CO)NC2=O)C(=O)N[C@@H](CCCNC(=N)N)C(=O)N[C@@H](Cc2ccc(O)cc2)C(=O)N[C@@H](CCCNC(=N)N)C(=O)N1)C(=O)NCC(=O)O (H-GCCSDPRCRYRCGGAAGAG-OH; disulfide 2-12, 3-8) | 19 | 36.3 | 54 | 60 |  |
| C[C@H](NC(=O)CNC(=O)[C@@H]1CSSC[C@H](NC(=O)CN)C(=O)N[C@H]2CSSC[C@H](NC(=O)[C@H](CCCNC(=N)N)NC(=O)[C@@H]3CCCN3C(=O)[C@H](CC(=O)O)NC(=O)[C@H](CO)NC2=O)C(=O)N[C@@H](CCCNC(=N)N)C(=O)N[C@@H](Cc2ccc(O)cc2)C(=O)N[C@@H](CCCNC(=N)N)C(=O)N1)C(=O)N[C@@H](C)C(=O)NCC(=O)NCC(=O)O (H-GCCSDPRCRYRCGAAGG-OH; disulfide 2-12, 3-8) |  | 11.5 |  |  | 25 |
| C[C@H](NC(=O)CNC(=O)[C@@H]1CSSC[C@H](NC(=O)CN)C(=O)N[C@H]2CSSC[C@H](NC(=O)[C@H](CCCNC(=N)N)NC(=O)[C@@H]3CCCN3C(=O)[C@H](CC(=O)O)NC(=O)[C@H](CO)NC2=O)C(=O)N[C@@H](CCCNC(=N)N)C(=O)N[C@@H](Cc2ccc(O)cc2)C(=O)N[C@@H](CCCNC(=N)N)C(=O)N1)C(=O)N[C@@H](C)C(=O)NCC(=O)O (H-GCCSDPRCRYRCGAAG-OH; disulfide 2-12, 3-8) |  | 70.1 |  |  | 12 |
| C[C@H](NC(=O)CNC(=O)CNC(=O)[C@@H]1CSSC[C@H](NC(=O)CN)C(=O)N[C@H]2CSSC[C@H](NC(=O)[C@H](CCCNC(=N)N)NC(=O)[C@@H]3CCCN3C(=O)[C@H](CC(=O)O)NC(=O)[C@H](CO)NC2=O)C(=O)N[C@@H](CCCNC(=N)N)C(=O)N[C@@H](Cc2ccc(O)cc2)C(=O)N[C@@H](CCCNC(=N)N)C(=O)N1)C(=O)N[C@@H](C)C(=O)NCC(=O)NCC(=O)O (H-GCCSDPRCRYRCGGAAGG-OH; disulfide 2-12, 3-8) | > 50 | 4.3 | 43 |  | 39 |
| C[C@H](NC(=O)[C@H](C)NC(=O)CNC(=O)[C@@H]1CSSC[C@H](NC(=O)CN)C(=O)N[C@H]2CSSC[C@H](NC(=O)[C@H](CCCNC(=N)N)NC(=O)[C@@H]3CCCN3C(=O)[C@H](CC(=O)O)NC(=O)[C@H](CO)NC2=O)C(=O)N[C@@H](CCCNC(=N)N)C(=O)N[C@@H](Cc2ccc(O)cc2)C(=O)N[C@@H](CCCNC(=N)N)C(=O)N1)C(=O)O (H-GCCSDPRCRYRCGAA-OH; disulfide 2-12, 3-8) |  | 82.5 |  |  | 8 |
| N=C(N)NCCC[C@@H]1NC(=O)[C@H](Cc2ccc(O)cc2)NC(=O)[C@H](CCCNC(=N)N)NC(=O)[C@@H]2CSSC[C@H](NC(=O)CN)C(=O)N[C@@H](CSSC[C@@H](C(=O)O)NC1=O)C(=O)N[C@@H](CO)C(=O)N[C@@H](CC(=O)O)C(=O)N1CCC[C@H]1C(=O)N[C@@H](CCCNC(=N)N)C(=O)N2 (H-GCCSDPRCRYRC-OH; disulfide 2-8, 3-12) | 34 | 4.4 | 92 | 55 |  |
| N=C(N)NCCC[C@H](NC(=O)[C@@H]1CSSC[C@@H]2NC(=O)[C@@H](NC(=O)CN)CSSC[C@H](NC(=O)[C@H](CCCNC(=N)N)NC(=O)[C@@H]3CCCN3C(=O)[C@H](CC(=O)O)NC(=O)[C@H](CO)NC2=O)C(=O)N[C@@H](CCCNC(=N)N)C(=O)N[C@@H](Cc2ccc(O)cc2)C(=O)N[C@@H](CCCNC(=N)N)C(=O)N1)C(=O)O | 40 | 40.7 |  | 60 |  |
